# According to PubChem BioAssay AID2060503 (Molecular Pharmacology Branch, DTP, NCI, 2025):
# System: 817829-284-R-J1-PDC complex spheroids, viability
# Experiment: Anticancer human tumor 817829-284-R-J1-PDC patient-derived colon adenocarcinoma cell line growth inhibition [GQUAD]
# Settings: for IC50: curve of first compound; for viability, T/C: stronger effect = lower value
# Description: DNA G-quadruplex Stabilizer Agents in Combinations in Complex Spheroids
# A high-throughput screen of multi-cell type tumor spheroids was designed to identify active combinations of DNA G-quadruplex stabilizer agents and targeted small molecules. Complex spheroids include a stromal component modeled by human endothelial cells (HUVEC) and fibroblasts modeled by human mesenchymal stem cells (MSCs). The concentration ranges selected for each drug and investigational agent were based upon clinically achievable concentrations if the clinical Cmax of the agent was known.
# Compounds. The drugs and investigational agents: pidnarulex (CX-5461; NSC782164), APTO-253 (NSC789042), BRACO-19 (NSC847499), peposertib (NSC802822), ceralasertib (NSC780249), elimusertib (NSC800525), camonsertib (NSC841442), AZD-1390 (NSC803789), olaparib (NSC753686), talazoparib (NSC767125), ART-558 (NSC835418), sotorasib (NSC818433), MRTX-1133 (NSC836407), SN-38 (NSC673596), topotecan (NSC609699), etoposide (NSC141540), doxorubicin (NSC123127), gemcitabine (NSC613327), 5-fluorouracil (NSC19893), paclitaxel (NSC125973), vemurafenib (NSC761431), panobinostat (NSC761190), R-306465 (JNJ-16241199; NSC773264), adavosertib (NSC754352), TP-3654 (NSC805149), carboplatin (NSC241240), KSQ-4279 (NSC840948), and staurosporine (NSC755774) were obtained from the National Cancer Institute (NCI) Developmental Therapeutics Program Chemical Repository (34). The FDA-approved anticancer drug set is available from the NCI Developmental Therapeutics Program. […] The stock solutions were prepared in dimethyl sulfoxide (DMSO, Sigma-Aldrich, St. Louis, MO, cat. D2650) at 800-fold the tested concentration and stored at -70 degrees C prior to their use. All drugs and investigational agents were tested over a range starting from a high concentration at or near the clinical Cmax and decreasing in half-log increments. If the clinical Cmax for an agent had not been determined, the highest concentration tested was 10 microM.
# 2.3 Cell Culture. All cells were maintained in an incubator at 37 degrees C and 5% CO2 with 95% humidity. The PDC lines were cultured according to standard operating procedures established by the NCI PDMR. All PDCs were thawed and cultured in Matrigel-coated flasks prepared with a working solution of 1X Ham's F-12 nutrient mix, without supplementation (Invitrogen, cat. 11765054), 100 U/mL penicillin-streptomycin (Invitrogen, cat. 15140122), and 2.5% Matrigel (Corning Inc., cat. 354248) for the first three passages. The 857933-349-R-J2-PDC line was cultured in 6C/Colon 1B media, which includes advanced DMEM/F-12 (Thermo Fisher Scientific, cat. 12634028), 10 mM HEPES (Thermo Fisher Scientific, cat. 15630080), 1X GlutaMAX supplement (Thermo Fisher Scientific, cat. 35050061), 0.1 mg/mL primocin (InvivoGen, cat. ant-pm-2), 10% defined fetal bovine serum, heat inactivated (HyClone Laboratories Inc., cat. SH30070.03HI), 50% L-WRN conditioned media (ATCC, cat. CRL-3276), 1.25 mM N-Acetyl-L-cysteine (Sigma-Aldrich, cat. A9165), 10 mM nicotinamide (Sigma-Aldrich, cat. N0636), 1X B-27 supplement (Thermo Fisher Scientific, cat. 17504044), 1X N-2 supplement (Thermo Fisher Scientific, cat. 17502048), 10 microM Y-27632 dihydrochloride (Tocris Bioscience, cat. 1254), and 50 ng/mL human EGF recombinant protein (Thermo Fisher Scientific, cat. PHG0311). The 485176-168-R4-J1-PDC line was cultured in Panc media, which includes all 6C/Colon 1B media components plus 100 ng/mL human FGF-10 (Thermo Fisher Scientific, cat. 100-26), 500 nM SB-431542 (Selleckchem, cat. S1067), and gastrin (Tocris, cat. 3006).
# […]
# [1] = second compound 0.0316 µM, first compound 0.0316 µM
# [2] = second compound 0.0316 µM, first compound 0.1 µM
# [3] = second compound 0.0316 µM, first compound 0.316 µM
# [4] = second compound 0.0316 µM, first compound 1 µM
# [5] = second compound 0.0316 µM, first compound 3.16 µM
# [6] = second compound 0.0316 µM, first compound 10 µM
# [7] = second compound 0.1 µM, first compound 0.0316 µM
# [8] = second compound 0.1 µM, first compound 0.1 µM
# [9] = second compound 0.1 µM, first compound 0.316 µM
# [10] = second compound 0.1 µM, first compound 1 µM
# [11] = second compound 0.1 µM, first compound 3.16 µM
# [12] = second compound 0.1 µM, first compound 10 µM
# [13] = second compound 0.316 µM, first compound 0.0316 µM
# [14] = second compound 0.316 µM, first compound 0.1 µM
# [15] = second compound 0.316 µM, first compound 0.316 µM
# [16] = second compound 0.316 µM, first compound 1 µM
# [17] = second compound 0.316 µM, first compound 3.16 µM
# [18] = second compound 0.316 µM, first compound 10 µM
# [19] = second compound 1 µM, first compound 0.0316 µM
# [20] = second compound 1 µM, first compound 0.1 µM
# [21] = second compound 1 µM, first compound 0.316 µM
# [22] = second compound 1 µM, first compound 1 µM
# [23] = second compound 1 µM, first compound 3.16 µM
# [24] = second compound 1 µM, first compound 10 µM
# [25] = second compound 3.16 µM, first compound 0.0316 µM
# [26] = second compound 3.16 µM, first compound 0.1 µM
# [27] = second compound 3.16 µM, first compound 0.316 µM
# [28] = second compound 3.16 µM, first compound 1 µM
# [29] = second compound 3.16 µM, first compound 3.16 µM
# [30] = second compound 3.16 µM, first compound 10 µM
# [31] = second compound 10 µM, first compound 0.0316 µM
# [32] = second compound 10 µM, first compound 0.1 µM
# [33] = second compound 10 µM, first compound 0.316 µM
# [34] = second compound 10 µM, first compound 1 µM
# [35] = second compound 10 µM, first compound 3.16 µM
# [36] = second compound 10 µM, first compound 10 µM
# 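Also: spheroids exposed to agents for 7 days before readout.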
# 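For viability, T/C in this document: percent viability relative to DMSO vehicle control taken as 100%.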
structure (smiles),measurement,setting,value
C=CC(=O)N1CCN(c2nc(=O)n(-c3c(C)ccnc3C(C)C)c3nc(-c4c(O)cccc4F)c(F)cc23)C(C)C1 (centres undefined) + Cc1[nH]c2ccc(F)cc2c1-c1nc2c3cccnc3c3ncccc3c2[nH]1,IC50,second compound 0.0316 µM,> 10000 nM
same,IC50,second compound 0.1 µM,> 10000 nM
same,IC50,second compound 0.316 µM,> 10000 nM
same,IC50,second compound 1 µM,> 10000 nM
same,IC50,second compound 3.16 µM,3260 nM
same,IC50,second compound 10 µM,< 31.6 nM
same,"viability, T/C",[1],106%
same,"viability, T/C",[2],81%
same,"viability, T/C",[3],109%
same,"viability, T/C",[4],74.4%
same,"viability, T/C",[5],106%
same,"viability, T/C",[6],97.5%
same,"viability, T/C",[7],87.2%
same,"viability, T/C",[8],90.1%
same,"viability, T/C",[9],88.5%
same,"viability, T/C",[10],91.2%
same,"viability, T/C",[11],108%
same,"viability, T/C",[12],92.8%
same,"viability, T/C",[13],84.3%
same,"viability, T/C",[14],102%
same,"viability, T/C",[15],104%
same,"viability, T/C",[16],101%
same,"viability, T/C",[17],102%
same,"viability, T/C",[18],104%
same,"viability, T/C",[19],82.1%
same,"viability, T/C",[20],97%
same,"viability, T/C",[21],93.6%
same,"viability, T/C",[22],97.6%
same,"viability, T/C",[23],98.2%
same,"viability, T/C",[24],79.8%
same,"viability, T/C",[25],102%
same,"viability, T/C",[26],99.3%
same,"viability, T/C",[27],75.7%
same,"viability, T/C",[28],68.2%
same,"viability, T/C",[29],51.7%
same,"viability, T/C",[30],32.4%
same,"viability, T/C",[31],11.3%
same,"viability, T/C",[32],18.4%
same,"viability, T/C",[33],44.3%
same,"viability, T/C",[34],15.1%
same,"viability, T/C",[35],11.6%
same,"viability, T/C",[36],17.1%
CC1COCCN1c1cc(C2(O)CC3CCC(C2)O3)c2cnn(-c3ccn[nH]3)c2n1 (centres undefined) + Cc1[nH]c2ccc(F)cc2c1-c1nc2c3cccnc3c3ncccc3c2[nH]1,IC50,second compound 0.0316 µM,< 31.6 nM
same,IC50,second compound 0.1 µM,< 31.6 nM
same,IC50,second compound 0.316 µM,< 31.6 nM
same,IC50,second compound 1 µM,< 31.6 nM
same,IC50,second compound 3.16 µM,< 31.6 nM
same,IC50,second compound 10 µM,< 31.6 nM
same,"viability, T/C",[1],40.4%
same,"viability, T/C",[2],9.87%
same,"viability, T/C",[3],7.43%
same,"viability, T/C",[4],5.2%
same,"viability, T/C",[5],5.12%
same,"viability, T/C",[6],3.63%
same,"viability, T/C",[7],32%
same,"viability, T/C",[8],12.5%
same,"viability, T/C",[9],7.69%
same,"viability, T/C",[10],6.04%
same,"viability, T/C",[11],5.1%
same,"viability, T/C",[12],3.62%
same,"viability, T/C",[13],28.5%
same,"viability, T/C",[14],13.2%
same,"viability, T/C",[15],6.99%
same,"viability, T/C",[16],5.84%
same,"viability, T/C",[17],5.13%
same,"viability, T/C",[18],3.71%
same,"viability, T/C",[19],30.4%
same,"viability, T/C",[20],11.7%
same,"viability, T/C",[21],7.32%
same,"viability, T/C",[22],6.4%
same,"viability, T/C",[23],4.91%
same,"viability, T/C",[24],3.49%
same,"viability, T/C",[25],19.1%
same,"viability, T/C",[26],6.27%
same,"viability, T/C",[27],4.26%
same,"viability, T/C",[28],3.69%
same,"viability, T/C",[29],3.38%
same,"viability, T/C",[30],1.97%
same,"viability, T/C",[31],6.89%
same,"viability, T/C",[32],2.8%
same,"viability, T/C",[33],4.24%
same,"viability, T/C",[34],2.85%
same,"viability, T/C",[35],2.85%
same,"viability, T/C",[36],1.69%
